These results are taken from patent US20250313535A1, “ALPHA 4 BETA 7 INTEGRIN MODULATORS AND USES THEREOF” (DICE MOLECULES SV, INC., priority 2022, published 2025).

Like-named read-outs stand apart in the source and are kept apart here.

One experiment addresses α4β7 integrin (Homo sapiens (Human), UniProt P13612+P26010). Briefly: Integrin Adhesion Assay: Protocol 4 (MAdCAM-coated plate, RPMI-8866 cells with stable LOF mutation of the ITGB1 gene). The format is cell-based. Put shortly:
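RPMI-8866 cells with CRISPR/Cas9 knockout of ITGB1 (2×10^6/mL) were added to MAdCAM-coated wells with compound (1% DMSO) in HEPES/NaCl buffer with 1 mM MnCl2, 0.1 mM CaCl2 and 1% BSA, then incubated 1 h at 37 °C. After four washes, adherent cells were quantified by CellTiter-Glo luminescence. Percent inhibition versus DMSO and control compound was fitted to 4-parameter curves.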

The target in the next experiment is α4β1 integrin (Homo sapiens (Human), UniProt P05556+P13612). Briefly: Integrin Adhesion Assay: Protocol 5 (VCAM-coated plate, RPMI-8866 cells with stable LOF mutation of the ITGB7 gene). The class given is cell-based. Put shortly:
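RPMI-8866 B cells with CRISPR/Cas9 ITGB7 knockout (clonal, verified by flow cytometry) adhered to VCAM-coated wells for 1 h at 37° C in HEPES/NaCl buffer with 1 mM MnCl2, 0.1 mM CaCl2, 1% BSA, 1% DMSO. Bound cells quantified by CellTiter-Glo luminescence after washing; % inhibition versus DMSO and control, 4-parameter fit.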

The mark [1] stands for this setting: RPMI-8866 cells with stable LOF mutation of the ITGB1 gene, read-out: Mean IC50 α4β7 KO^a.
The mark [2] stands for this setting: RPMI-8866 cells with stable LOF mutation of the ITGB7 gene, read-out: Mean IC50 α4β1 KO^b.
The mark [3] stands for this setting: Protocol 4, RPMI-8866 cells with LOF mutation of ITGB1, MAdCAM, read-out: Mean IC50 α4β7 KO.
[4] abbreviates: Protocol 5, RPMI-8866 cells with LOF mutation of ITGB7, VCAM, read-out: Mean IC50 α4β1 KO.

Chain of α4β7 integrin (P13612 34-1032): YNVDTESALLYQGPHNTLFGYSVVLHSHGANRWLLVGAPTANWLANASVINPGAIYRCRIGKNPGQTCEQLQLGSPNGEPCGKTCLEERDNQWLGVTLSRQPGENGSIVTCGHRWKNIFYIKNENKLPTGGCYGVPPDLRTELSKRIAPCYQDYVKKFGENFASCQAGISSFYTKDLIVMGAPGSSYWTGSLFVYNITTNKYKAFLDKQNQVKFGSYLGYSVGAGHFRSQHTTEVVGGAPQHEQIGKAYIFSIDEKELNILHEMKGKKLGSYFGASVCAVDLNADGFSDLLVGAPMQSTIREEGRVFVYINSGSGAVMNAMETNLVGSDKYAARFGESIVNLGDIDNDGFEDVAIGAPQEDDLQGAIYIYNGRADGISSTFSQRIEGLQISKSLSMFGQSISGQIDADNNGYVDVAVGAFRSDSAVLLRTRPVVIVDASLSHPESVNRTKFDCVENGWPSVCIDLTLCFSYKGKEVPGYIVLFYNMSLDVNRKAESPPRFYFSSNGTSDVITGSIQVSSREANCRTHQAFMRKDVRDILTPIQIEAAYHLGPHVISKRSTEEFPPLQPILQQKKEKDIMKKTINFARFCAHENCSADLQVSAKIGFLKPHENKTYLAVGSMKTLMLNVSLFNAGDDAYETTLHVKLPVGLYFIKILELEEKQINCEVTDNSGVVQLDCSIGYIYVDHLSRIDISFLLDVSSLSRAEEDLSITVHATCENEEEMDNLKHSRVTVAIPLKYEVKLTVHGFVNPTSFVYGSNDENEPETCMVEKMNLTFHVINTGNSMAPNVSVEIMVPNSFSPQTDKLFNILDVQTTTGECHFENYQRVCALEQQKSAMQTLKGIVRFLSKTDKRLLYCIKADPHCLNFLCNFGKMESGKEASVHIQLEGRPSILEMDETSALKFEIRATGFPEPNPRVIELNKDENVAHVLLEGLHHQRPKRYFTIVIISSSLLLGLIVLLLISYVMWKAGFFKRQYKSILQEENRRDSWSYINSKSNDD
Chain of α4β7 integrin (P26010 20-798): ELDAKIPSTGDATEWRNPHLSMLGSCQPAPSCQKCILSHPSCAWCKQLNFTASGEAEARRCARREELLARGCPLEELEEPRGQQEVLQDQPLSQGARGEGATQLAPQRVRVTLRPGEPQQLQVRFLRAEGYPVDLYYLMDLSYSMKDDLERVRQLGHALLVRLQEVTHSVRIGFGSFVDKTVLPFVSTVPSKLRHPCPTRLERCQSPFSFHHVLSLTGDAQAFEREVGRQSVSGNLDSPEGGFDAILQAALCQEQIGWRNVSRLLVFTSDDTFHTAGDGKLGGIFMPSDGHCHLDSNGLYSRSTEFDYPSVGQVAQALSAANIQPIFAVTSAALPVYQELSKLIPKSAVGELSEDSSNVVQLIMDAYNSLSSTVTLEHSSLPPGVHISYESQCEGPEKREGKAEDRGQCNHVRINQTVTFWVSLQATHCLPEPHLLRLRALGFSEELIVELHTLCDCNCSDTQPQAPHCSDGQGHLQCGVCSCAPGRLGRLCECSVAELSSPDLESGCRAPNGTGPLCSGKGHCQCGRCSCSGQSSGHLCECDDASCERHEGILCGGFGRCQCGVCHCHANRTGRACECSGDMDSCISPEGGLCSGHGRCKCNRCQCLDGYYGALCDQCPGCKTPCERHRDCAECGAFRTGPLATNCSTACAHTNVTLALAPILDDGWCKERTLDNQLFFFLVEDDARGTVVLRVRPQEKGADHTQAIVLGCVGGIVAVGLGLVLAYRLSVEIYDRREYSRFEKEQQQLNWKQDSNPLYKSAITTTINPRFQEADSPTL
Chain of α4β1 integrin (P13612 34-1032): as the sequence (P13612 34-1032) above
Chain of α4β1 integrin (P05556 21-798): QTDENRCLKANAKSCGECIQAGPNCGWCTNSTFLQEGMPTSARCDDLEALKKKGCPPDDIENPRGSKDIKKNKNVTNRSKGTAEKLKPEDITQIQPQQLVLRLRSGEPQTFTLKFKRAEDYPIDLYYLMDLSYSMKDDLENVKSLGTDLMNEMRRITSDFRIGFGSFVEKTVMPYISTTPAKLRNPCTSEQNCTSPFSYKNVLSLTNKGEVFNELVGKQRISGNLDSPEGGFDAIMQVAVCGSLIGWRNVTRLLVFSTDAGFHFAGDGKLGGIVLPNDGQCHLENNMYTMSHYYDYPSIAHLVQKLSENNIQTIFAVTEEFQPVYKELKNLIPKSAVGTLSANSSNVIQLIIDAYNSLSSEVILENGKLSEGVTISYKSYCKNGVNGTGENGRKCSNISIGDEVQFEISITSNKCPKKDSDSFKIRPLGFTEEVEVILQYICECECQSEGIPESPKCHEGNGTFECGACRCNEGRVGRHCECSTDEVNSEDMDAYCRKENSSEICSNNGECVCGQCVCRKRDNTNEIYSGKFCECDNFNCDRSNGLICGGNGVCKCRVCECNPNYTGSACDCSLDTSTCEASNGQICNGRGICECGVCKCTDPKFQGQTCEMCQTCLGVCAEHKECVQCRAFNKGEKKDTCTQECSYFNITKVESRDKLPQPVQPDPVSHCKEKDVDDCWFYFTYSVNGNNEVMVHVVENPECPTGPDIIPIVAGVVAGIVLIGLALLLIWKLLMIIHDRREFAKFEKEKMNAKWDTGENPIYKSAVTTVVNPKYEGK

Regarding `COc1cccc(CN2CCCCC2)c1-c1cccc2c(C[C@H](NC(=O)c3c(F)cccc3Cl)C(=O)O)cccc12` [Compound 674], the half-inhibitory concentration (IC50) on α4β7 integrin (setting [1]) is below 10 nM; at α4β1 integrin (setting [2]), 100 to 1000 nM.
The corresponding values for `COc1cccc(F)c1C(=O)N[C@@H](Cc1cccc2c(-c3c(CN4CCCCC4)cccc3OC)cccc12)C(=O)O` [Compound 675] are below 10 nM and 100 to 1000 nM.
The matching figures for `CCC1(C(=O)N[C@@H](Cc2cccc3c(-c4ncc(CN5CCCCC5)c5ccccc45)cccc23)C(=O)O)CCN(CC(F)(F)F)CC1` [Compound 676]: below 10 nM and above 1000 nM.
The matching figures for `N#CC1(C(=O)N[C@@H](Cc2cccc3c(-c4ncc(CN5CCCCC5)c5ccccc45)cccc23)C(=O)O)CCN(CC(F)(F)F)CC1` [Compound 677]: 10 to 100 nM and above 1000 nM.
Regarding `CC1(C(=O)N[C@@H](Cc2cccc3c(-c4ncc(CN5CCCCC5)c5ccccc45)cccc23)C(=O)O)CC2CCC(C1)N2CC(F)(F)F` (stereo partly drawn) [Compound 679], the IC50 on α4β7 integrin (setting [1]) was 10 to 100 nM; at α4β1 integrin (setting [2]), above 1000 nM.
The matching figures for `O=C(O)[C@H](Cc1cccc2c(-c3ncc(CN4CCCCC4)c4ccccc34)cccc12)NC(=O)C1(C(F)(F)F)CCN([C@H]2COCC2(F)F)CC1` [Compound 680]: below 10 nM and 100 to 1000 nM.
With `O=C(O)[C@H](Cc1cccc2c(-c3ncc(CN4CCCCC4)c4ccccc34)cccc12)NC(=O)C1(C(F)(F)F)CCN(C2CC(F)(F)C2)CC1` [Compound 681], the figures for the IC50 at α4β7 integrin (setting [1]) and at α4β1 integrin (setting [2]) were below 10 nM and 100 to 1000 nM, respectively.
The corresponding values for `O=C(O)[C@H](Cc1cccc2c(-c3ncc(CN4CCCCC4)c4ccccc34)cccc12)NC(=O)C1(C(F)(F)F)CCN(CCC(F)(F)F)CC1` [Compound 682] are below 10 nM and above 1000 nM.
The corresponding values for `O=C(O)[C@H](Cc1cccc2c(-c3ncc(CN4CCCCC4)c4ccccc34)cccc12)NC(=O)C1(C(F)(F)F)CCN(CC2(C(F)(F)F)CC2)CC1` [Compound 683] are below 10 nM and above 1000 nM.
Regarding `CC1(C(=O)N[C@@H](Cc2cccc3c(-c4ncc(CN5CCCCC5)c5ccccc45)cccc23)C(=O)O)CC2CCC(C1)N2CC(F)F` (stereo partly drawn) [Compound 684], the IC50 at α4β7 integrin (setting [1]) was 10 to 100 nM; on α4β1 integrin (setting [2]), above 1000 nM.
Turning to `CC1(C(=O)N[C@@H](Cc2cccc3c(-c4ncc(CN5CCCCC5)c5ccccc45)cccc23)C(=O)O)CC2CCC(C1)N2C1COC1` (stereo partly drawn) [Compound 685], the values for the IC50 at α4β7 integrin (setting [1]) and on α4β1 integrin (setting [2]) were 10 to 100 nM and above 1000 nM, respectively.
For `CC1(C(=O)N[C@@H](Cc2cccc3c(-c4ncc(CN5CCCCC5)c5ccccc45)cccc23)C(=O)O)CCN(CC(F)F)CC1` [Compound 687], the figures for the IC50 at α4β7 integrin (setting [3]) and on α4β1 integrin (setting [4]) were below 10 nM and above 1000 nM, respectively.
The matching figures for `Cc1cccc(F)c1C(=O)N[C@@H](Cc1cccc2c(-c3cc(CN4CCCCC4)ccn3)cccc12)C(=O)O` [Compound 688]: 10 to 100 nM and above 1000 nM.
For `O=C(O)[C@H](Cc1cccc2c(-c3ncc(CN4CCC5(CC4)CC5)c4ccccc34)cccc12)NC(=O)C1(C(F)(F)F)CCN(C2COC2)CC1` [Compound 694], the IC50 at α4β7 integrin (setting [3]) is below 10 nM; at α4β1 integrin (setting [4]) it was 100 to 1000 nM.
The matching figures for `CN(C)Cc1ccc(-c2cccc3c(C[C@H](NC(=O)C4(C(F)(F)F)CCN(CC(F)(F)F)CC4)C(=O)O)cccc23)c2cnccc12` [Compound 695]: below 10 nM and above 1000 nM.
For `CN(C)Cc1ccc2c(c1)c(C(F)(F)F)c(-c1cccc3c(C[C@H](NC(=O)C4(C(F)(F)F)CCN(CC(F)(F)F)CC4)C(=O)O)cccc13)c(=O)n2C` [Compound 696], the IC50 on α4β7 integrin (setting [3]) is below 10 nM; at α4β1 integrin (setting [4]), 10 to 100 nM.
The matching figures for `Cc1cc(C(F)(F)F)cc(F)c1C(=O)N[C@@H](Cc1cccc2c(-c3c(C(F)(F)F)c4cc(CN(C)C)ccc4n(C)c3=O)cccc12)C(=O)O` [Compound 700]: 10 to 100 nM and above 1000 nM.
The matching figures for `CN(C)Cc1ccc2c(c1)c(C(F)(F)F)c(-c1cccc3c(C[C@H](NC(=O)c4c(F)cccc4CN4CCC(F)(F)CC4)C(=O)O)cccc13)c(=O)n2C` [Compound 701]: 10 to 100 nM and above 1000 nM.
The corresponding values for `O=C(O)[C@H](Cc1cccc2c(-c3ccc(CN4CCCCC4)c4ccncc34)cccc12)NC(=O)C1(C(F)(F)F)CCN(CC(F)(F)F)CC1` [Compound 702] are below 10 nM and above 1000 nM.
For `COc1ccc(CN(C)C)c(OC(F)(F)F)c1-c1cccc2c(C[C@H](NC(=O)c3c(C)cccc3F)C(=O)O)cccc12` [Compound 703], the IC50 at α4β7 integrin (setting [3]) was below 10 nM; at α4β1 integrin (setting [4]), 100 to 1000 nM.
The corresponding values for `COc1c(CN2CCCCC2)ccc(OC(F)(F)F)c1-c1cccc2c(C[C@H](NC(=O)c3c(C)cccc3F)C(=O)O)cccc12` [Compound 704] are 10 to 100 nM and above 1000 nM.
As for `Cc1cccc(F)c1C(=O)N[C@@H](Cc1cccc2c(-c3c(C(F)(F)F)c4cc(CCN(C)C)ccc4n(C)c3=O)cccc12)C(=O)O` [Compound 706], the IC50 at α4β7 integrin (setting [3]) was below 10 nM; on α4β1 integrin (setting [4]), 100 to 1000 nM.
`CN(C)CCc1ccc2c(c1)c(C(F)(F)F)c(-c1cccc3c(C[C@H](NC(=O)C4(C(F)(F)F)CCN(CC(F)(F)F)CC4)C(=O)O)cccc13)c(=O)n2C` [Compound 707]: the figures for the IC50 on α4β7 integrin (setting [3]) and on α4β1 integrin (setting [4]) were below 10 nM and 10 to 100 nM, respectively.
Regarding `Cn1c(=O)c(-c2cccc3c(C[C@H](NC(=O)c4c(F)cccc4F)C(=O)O)cccc23)c(C(F)(F)F)c2cc(CCN3CCC3)ccc21` [Compound 709], the IC50 on α4β7 integrin (setting [3]) is below 10 nM; at α4β1 integrin (setting [4]) it was above 1000 nM.
The corresponding values for `Cn1c(=O)c(-c2cccc3c(C[C@H](NC(=O)c4c(F)cccc4F)C(=O)O)cccc23)c(C(F)(F)F)c2cc(CCN3CCCC3)ccc21` [Compound 710] are below 10 nM and 100 to 1000 nM.
Turning to `CN(C)CCc1ccc2c(c1)c(C(F)(F)F)c(-c1cccc3c(C[C@H](NC(=O)c4c(F)cccc4CN4CCC(F)(F)CC4)C(=O)O)cccc13)c(=O)n2C` [Compound 711], the IC50 on α4β7 integrin (setting [3]) is below 10 nM; at α4β1 integrin (setting [4]), 100 to 1000 nM.
With `Cc1cccc(F)c1C(=O)N[C@@H](Cc1cccc2c(-c3c(C(F)(F)F)c4cc(CCN5CCC(F)(F)C5)ccc4n(C)c3=O)cccc12)C(=O)O` [Compound 712], the values for the IC50 on α4β7 integrin (setting [3]) and on α4β1 integrin (setting [4]) were 10 to 100 nM and above 1000 nM, respectively.
For `Cc1cccc(F)c1C(=O)N[C@@H](Cc1cccc2c(-c3c(C(F)(F)F)c4cc(CCN5CCCC5)ccc4n(C)c3=O)cccc12)C(=O)O` [Compound 713], the values for the IC50 at α4β7 integrin (setting [3]) and on α4β1 integrin (setting [4]) were below 10 nM and 100 to 1000 nM, respectively.
The corresponding values for `Cc1cccc(F)c1C(=O)N[C@@H](Cc1cccc2c(-c3c(C(F)(F)F)c4cc(CCN5CCC(F)(F)CC5)ccc4n(C)c3=O)cccc12)C(=O)O` [Compound 714] are 10 to 100 nM and above 1000 nM.
The matching figures for `Cc1c(CCN2CCC(F)(F)CC2)ccnc1-c1cccc2c(C[C@H](NC(=O)C3(C(F)(F)F)CCN(CC(F)(F)F)CC3)C(=O)O)cccc12` [Compound 716]: below 10 nM and above 1000 nM.
The matching figures for `Cc1c(CCN2CCCCC2)ccnc1-c1cccc2c(C[C@H](NC(=O)C3(C(F)(F)F)CCN(CC(F)(F)F)CC3)C(=O)O)cccc12` [Compound 717]: below 10 nM and 100 to 1000 nM.
Regarding `O=C(O)[C@H](Cc1cccc2c(-c3nccc4ccc(CCN5CCCCC5)cc34)cccc12)NC(=O)C1(C(F)(F)F)CCN(CC(F)(F)F)CC1` [Compound 718], the half-inhibitory concentration (IC50) was below 10 nM on α4β7 integrin (setting [3]) and above 1000 nM at α4β1 integrin (setting [4]).
The corresponding values for `Cc1cc(CN2CCCCC2)cnc1-c1cccc2c(C[C@H](NC(=O)C3(C(F)(F)F)CCN(CC(F)F)CC3)C(=O)O)cccc12` [Compound 721] are 10 to 100 nM and above 1000 nM.
As for `COc1ccc2c(CN3CCCCC3)ccnc2c1-c1cccc2c(C[C@H](NC(=O)C3(C(F)(F)F)CCN(CC(F)(F)F)CC3)C(=O)O)cccc12` [Compound 722], the IC50 is below 10 nM at α4β7 integrin (setting [3]) and 10 to 100 nM on α4β1 integrin (setting [4]).
With `O=C(O)[C@H](Cc1cccc2c(-c3nccc4ccccc34)cccc12)NC(=O)C1(C(F)(F)F)CCN(CC(F)(F)F)CC1` [Compound 723], the values for the IC50 on α4β7 integrin (setting [3]) and on α4β1 integrin (setting [4]) were 10 to 100 nM and above 1000 nM, respectively.
The corresponding values for `COc1cc2c(c(C)c1-c1cccc3c(C[C@H](NC(=O)C4(C(F)(F)F)CCN(CC(F)(F)F)CC4)C(=O)O)cccc13)CN(C)CC2` [Compound 724] are below 10 nM and 10 to 100 nM.
For `O=C(O)[C@H](Cc1cccc2c(-c3nccc4ccc(CCCN5CCCCC5)cc34)cccc12)NC(=O)C1(C(F)(F)F)CCN(CC(F)(F)F)CC1` [Compound 725], the figures for the IC50 at α4β7 integrin (setting [3]) and on α4β1 integrin (setting [4]) were below 10 nM and above 1000 nM, respectively.
The corresponding values for `COc1cc2c(c(C(F)(F)F)c1-c1cccc3c(C[C@H](NC(=O)C4(C(F)(F)F)CCN(CC(F)(F)F)CC4)C(=O)O)cccc13)CCN(C)C2` [Compound 726] are below 10 nM and 10 to 100 nM.
Regarding `COc1ccc(CCN2CCCCC2)c(C(F)(F)F)c1-c1cccc2c(C[C@H](NC(=O)C3(C(F)(F)F)CCN(CC(F)(F)F)CC3)C(=O)O)cccc12` [Compound 727], the IC50 on α4β7 integrin (setting [3]) is below 10 nM; at α4β1 integrin (setting [4]) it was 10 to 100 nM.

The term IC50 denotes the concentration needed to halve the response being measured.
